In PubChem BioAssay AID248 (DTP/NCI, 2004):
Inconclusive results and toxic doses are left out. Rule as the data show it: active = T/C of 150% or more; inactive = T/C below 125%.

Tested on: L1210 leukemia ip in BDF1 mice, survival T/C
Test: NCI In Vivo Anticancer Drug Screen. Data for tumor model L1210 Leukemia (intraperitoneal) in B6D2F1 (BDF1) mice
Settings: endpoint: mean survival time, schedule: Q01DX009 (ip), vehicle: Klucel (hydroxypropylcellulose) (HPC), higher = longer survival
Outline: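 Tumor cells were implanted, animals were treated, and survival was followed. The result divides the treated measurement by the vehicle-control measurement.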

Measured: T/C

CC(=O)Nc1ccc2c(c1)Cc1cccc(NC(C)=O)c1-2
inactive: dose: 25.0 mg/kg/injection 95 % of control | dose: 50.0 mg/kg/injection 103 % of control | dose: 100.0 mg/kg/injection 103 % of control
